Data taken from US6372779B1, “Anti-inflammatory compounds” (Ortho Pharmaceutical Corporation, priority 1997, dated 2002).

Experiments:
[1] = test system: oxazolone-induced ear swelling in CD-1 mice; test: mouse oxazolone-induced contact hypersensitization (MOCH), ear swelling; assay type: in vivo; settings: for inhibition in vivo at 1 mg: topical to ear, mouse, 24 hours after oxazolone challenge, read-out: Oxazolone Ear Swelling (MOCH) % inhibition vs. Vehicle at 1 mg; for topical antiinflammatory activity in the oxazolone model (in words): mouse ear
Experimental: Several triphenylpropanamide compounds of this invention, having varying affinities for the human glucocorticoid receptor, were tested for topical antiinflammatory activity in mouse ear inflammation models. […] Compounds having receptor affinities closer to hydrocortisone were as nearly active as hydrocortisone in suppressing mouse oxazolone-induced contact hypersensitization (MOCH) and phorbol ester-induced ear edema. The in vivo studies of this example were conducted as follows.
In determining the MOCH using the compounds of this invention, albino male CD-1 mice, 7-9 weeks old were induced on the shaved abdomen with 50 μl of 3% oxazolone in acetone/corn oil (Day 0). On Day 5, a 20 μl volume of 2% oxazolone in acetone was applied to the dorsal left ear of the mouse. Compounds (made in ethanol/propylene glycol, 70:30) were applied to the left ear in 20 μl volume, one hour after oxazolone challenge. The right ear was not treated. The mice were sacrificed by carbon dioxide inhalation 24 hours after oxazolone challenge, the left and right ears were removed and a 7 mm biopsy was removed from each ear and weighed. The difference in biopsy weights between the right and left ears was calculated. Antiinflammatory effects of compounds were evident as an inhibition of the increase in ear weight.

melting point [°C] | Compound | inhibition in vivo at 1 mg [1] [%] | topical antiinflammatory activity in the oxazolone model (in words) [1]
190 to 191 | O=C(NCC(c1ccccc1)C(c1ccccc1)c1ccccc1)Nc1ccccc1F (stereo not drawn) [Compound 53] | 24 | 
175 to 177.5 | O=C(Cc1cccs1)NCC(c1ccccc1)C1c2ccccc2CCc2ccccc21 (stereo not drawn) [Compound 75] | 26 | 
183.5 to 185 | Cc1ccc(C(=O)NCC(c2ccccc2)C(c2ccccc2)c2ccccc2)s1 (stereo not drawn) [Compound 30] | 21 | 
127.3 to 129.4 | O=C(Cc1ccccc1Cl)NCC(c1ccccc1)C(c1ccc(F)cc1)c1ccc(F)cc1 (stereo not drawn) [Compound 16] | 46 | moderate topical activity
209 to 210 | O=C(NCC1(c2ccccc2)CC1(c1ccccc1)c1ccccc1)Nc1ccccc1 (stereo not drawn) [Compound 92] | 42 | 
122 to 123 | CCCCC(=O)NCC1(c2ccccc2)CC1(c1ccccc1)c1ccccc1 (stereo not drawn) [Compound 87] | 22 | 
127 to 130 | O=C(Cc1cccs1)NCC(c1ccc(I)cc1)C(c1ccccc1)c1ccccc1 (stereo not drawn) [Compound 33] | 74 | 
166 to 169 | O=C(NCC1(c2ccccc2)CC1(c1ccccc1)c1ccccc1)C(c1ccccc1)c1ccccc1 (stereo not drawn) [Compound 82] | 23 | 
168.4 to 170.9 | O=C(Cc1ccc(Cl)cc1)NCC(c1ccccc1)C(c1ccccc1)c1ccccc1 (stereo not drawn) [Compound 3] |  | 
172.7 to 174.6 | O=C(Cc1ccccc1)NCC(c1ccccc1)C1c2ccccc2CCc2ccccc21 (stereo not drawn) [Compound 73] |  | 
112 to 113 | CC(C)CC(=O)NCC(c1ccccc1)C(c1ccccc1)c1ccccc1 (stereo not drawn) [Compound 63] | 3 | 
169 to 170.9 | O=S(=O)(NCC(c1ccccc1)C(c1ccccc1)c1ccccc1)c1cccs1 (stereo not drawn) [Compound 40] | 15 | 
143 to 144 | CC(C)(C)C(=O)NCC(c1ccccc1)C(c1ccccc1)c1ccccc1 (stereo not drawn) [Compound 64] | 26 | 
78.9 to 80.9 | COc1ccccc1CCC(=O)NCC(c1ccccc1)C(c1ccc(F)cc1)c1ccc(F)cc1 (stereo not drawn) [Compound 23] | 41 | moderate topical activity
152.5 to 155 | O=C(NCC1(c2ccccc2)CC1(c1ccccc1)c1ccccc1)c1cccs1 (stereo not drawn) [Compound 90] | 65 | 
107 to 109.3 | CN(CC(c1ccccc1)C(c1ccccc1)c1ccccc1)C(=O)Cc1cccs1 (stereo not drawn) [Compound 44] | 3 | 
137 to 140 | COc1ccccc1CCC(=O)NCC(c1ccccc1)C(c1ccccc1)c1ccccc1 (stereo not drawn) [Compound 20] | 32 | 
88 to 89 | CCCC(=O)NCC(c1ccccc1)C(c1ccccc1)c1ccccc1 (stereo not drawn) [Compound 60] | 27 | 
89 to 93 | O=C(Cc1c[nH]c2ccccc12)NCC(c1ccccc1)C(c1ccccc1)c1ccccc1 (stereo not drawn) [Compound 47] | 51 | 
78 to 79 | CCCCC(=O)NCC(c1ccccc1)C(c1ccccc1)c1ccccc1 (stereo not drawn) [Compound 62] | 36 | 
167.3 to 169.3 | O=C(Cc1ccsc1)NCC(c1ccccc1)C1c2ccccc2CCc2ccccc21 (stereo not drawn) [Compound 76] | 23 | 

melting point [°C] | Compound | inhibition in vivo at 1 mg [1] [%] | topical antiinflammatory activity in the oxazolone model (in words) [1]
108.8 to 111.3 | O=C(Cc1cccc(C(F)(F)F)c1)NCC(c1ccccc1)C(c1ccccc1)c1ccccc1 (stereo not drawn) [Compound 11] | 33 | 
187.5 to 189 | COc1ccccc1CCC(=O)NCC1(c2ccccc2)CC1(c1ccccc1)c1ccccc1 (stereo not drawn) [Compound 81] | 22 | 
168 to 170.5 | Cc1ccc(C(=O)NCC2(c3ccccc3)CC2(c2ccccc2)c2ccccc2)s1 (stereo not drawn) [Compound 91] | 13 | 
123 to 124.5 | COc1ccc(CC(=O)NCC(c2ccccc2)C(c2ccccc2)c2ccccc2)cc1OC (stereo not drawn) [Compound 7] |  | 
107.4 to 109 | O=C(CCc1ccccc1)NCC(c1ccccc1)C(c1ccccc1)c1ccccc1 (stereo not drawn) [Compound 19] | 2 | 
114 to 115 | CC(C)C(=O)NCC(c1ccccc1)C(c1ccccc1)c1ccccc1 (stereo not drawn) [Compound 61] | 17 | 
120.1 to 121.7 | O=C(Cc1ccccn1)NCC(c1ccccc1)C(c1ccccc1)c1ccccc1 (stereo not drawn) [Compound 49] | 20 | 
149 to 150 | CCCC(=O)NCC1(c2ccccc2)CC1(c1ccccc1)c1ccccc1 (stereo not drawn) [Compound 83] | -4 | 
130 to 135 | O=C(Cc1ccsc1)NCC1(c2ccccc2)CC1(c1ccccc1)c1ccccc1 (stereo not drawn) [Compound 89] | 16 | 
109 to 111.5 | O=C(Cc1ccccc1C(F)(F)F)NCC(c1ccccc1)C(c1ccccc1)c1ccccc1 (stereo not drawn) [Compound 10] | 19 | 
135 to 138 | O=C(Cc1ccsc1)NCC(c1ccccc1)C(c1ccccc1)c1ccccc1 (stereo not drawn) [Compound 36] | 13 | 
151 to 152 | O=C(NCC(c1ccccc1)C(c1ccccc1)c1ccccc1)Oc1ccc2ccccc2c1 (stereo not drawn) [Compound 59] |  | 
128.7 to 130.5 | O=C(Cc1cccs1)NCC(c1ccccc1)C1c2ccccc2-c2ccccc21 (stereo not drawn) [Compound 71] |  | 
165.2 to 166.5 | O=C(Cc1c(Cl)cccc1Cl)NCC(c1ccccc1)C(c1ccccc1)c1ccccc1 (stereo not drawn) [Compound 8] |  | 
 | O=C(Cc1ccc(Cl)cc1)NCC(c1ccc2c(c1)OCO2)C(c1ccccc1)c1ccccc1 (stereo not drawn) [Compound 98] |  | equiactive with hydrocortisone
 | C[C@]12CCC(=O)C=C1CC[C@@H]1[C@@H]2[C@@H](O)C[C@@]2(C)[C@H]1CC[C@]2(O)C(=O)CO [hydrocortisone, reference compound] | 75 to 85 | 
121 to 122 | CC(C)(C)C(=O)NCC1(c2ccccc2)CC1(c1ccccc1)c1ccccc1 (stereo not drawn) [Compound 86] |  | 
 | O=C(Cc1ccccc1)NCC(c1ccccc1)C(c1ccc(F)cc1)c1ccc(F)cc1 (stereo not drawn) [Compound 15] |  | moderate topical activity
210 to 211 | O=C(NCC(c1ccccc1)C(c1ccccc1)c1ccccc1)Nc1ccccc1Cl (stereo not drawn) [Compound 52] |  | 
150 to 152 | O=C(Cc1ccccc1)NCC1(c2ccccc2)CC1(c1ccccc1)c1ccccc1 (stereo not drawn) [Compound 78] |  | 

Compound | melting point [°C] | inhibition in vivo at 1 mg [1] [%] | topical antiinflammatory activity in the oxazolone model (in words) [1]
O=C(NCC1(c2ccccc2)CC1(c1ccccc1)c1ccccc1)Oc1ccc(Cl)cc1 (stereo not drawn) [Compound 97] | 171 to 172 | 50 | 
O=C(NCC(c1ccccc1)C(c1ccccc1)c1ccccc1)Oc1ccc(F)cc1 (stereo not drawn) [Compound 58] | 150 to 151 | 16 | 
O=C(NCC1(c2ccccc2)CC1(c1ccccc1)c1ccccc1)Oc1ccccc1 (stereo not drawn) [Compound 96] | 146 to 147 | 52 | 
